# From US9994536B2, “Compounds and methods of treating neurological disorders” (TORREY PINES INSTITUTE FOR MOLECULAR STUDIES, priority 2014, dated 2018)
# Legend:
# [1] = test system: fibroblasts derived directly from AD patients; experiment: MTT cytotoxicity assay, AD fibroblasts; type: cell-based; details: 24 h exposure, human AD fibroblasts
# Source text: (4). Toxicity is another crucial limitation for successful drug development as evidenced by recent failure of γ-secretase inhibitors at the clinical trials due to cytotoxicity (Cole, S L and Vassar, R, 2007, Mol. Neurodeg. 2, 22-47; Doody R S, et al. 2013. N. Eng. J. Med. 369, 341-350). Therefore we measured cytotoxicity by very sensitive MTT assay as described previously (Hayes, C D., et al. 2013, BMC Medicine. 26, 11.81; 23; Hayes, C D., et al., 2012, PLoS One 7, e45841) in human primary neurons obtained from a commercial source (cat #1520, ScienCell, Carlsbad, Calif., USA) and fibroblasts derived directly from AD patients (cat #AG06263C, Coriell Institute Cell repository supported by NINDS, NIH). […] We directly used human neurons for toxicity studies so as to reduce the chances of future failure at a later stage due to toxicity.
# TrkA = molecular target: T1, TrkA (Mus musculus, UniProt Q3UFB7); experiment: Mouse brain lysate immunoblot, TrkA; type: in vivo; details: 100 mg/kg i.p. for 5 days
# T1 construct: from tissue; host or cells: mouse brain lysate
# Procedure: FIGS. 9.2A and B illustrate that THPI-244 increases TrkA and sAPPα in the mouse brain. FIG. 9.2A illustrates that THPI-244 was administered to mice by i.p. injections at 100 mg/kg body weight for 5 days and the brain lysates were subjected to immunoblots. Specific antibodies were used to detect TrkA and sAPPα. […] Data are mean±SEM, n=3*, p<0.05, ***, p<0.001.
# T1 sequence (Q3UFB7 34-799): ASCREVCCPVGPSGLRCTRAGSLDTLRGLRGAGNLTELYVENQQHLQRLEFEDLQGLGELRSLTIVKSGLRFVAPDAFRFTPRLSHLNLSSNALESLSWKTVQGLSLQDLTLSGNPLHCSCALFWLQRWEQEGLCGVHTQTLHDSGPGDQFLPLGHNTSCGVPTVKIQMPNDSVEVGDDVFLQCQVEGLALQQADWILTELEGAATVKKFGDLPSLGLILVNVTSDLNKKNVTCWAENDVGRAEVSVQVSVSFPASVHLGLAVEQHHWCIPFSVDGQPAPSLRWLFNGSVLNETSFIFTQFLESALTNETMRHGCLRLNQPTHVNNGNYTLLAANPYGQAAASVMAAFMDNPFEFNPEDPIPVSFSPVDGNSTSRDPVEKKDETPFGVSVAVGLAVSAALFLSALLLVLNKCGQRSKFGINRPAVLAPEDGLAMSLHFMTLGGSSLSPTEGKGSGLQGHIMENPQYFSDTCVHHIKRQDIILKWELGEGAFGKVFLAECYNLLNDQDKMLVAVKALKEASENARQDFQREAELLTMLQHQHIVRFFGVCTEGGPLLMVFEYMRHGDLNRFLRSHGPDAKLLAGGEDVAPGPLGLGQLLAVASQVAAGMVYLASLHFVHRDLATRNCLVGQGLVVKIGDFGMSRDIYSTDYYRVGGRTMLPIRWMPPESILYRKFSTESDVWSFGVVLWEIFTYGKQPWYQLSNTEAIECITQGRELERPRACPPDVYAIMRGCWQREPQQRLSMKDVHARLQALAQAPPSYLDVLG
smiles,measurement,setting,value
O=C(Cc1ccccc1)N[C@H](CNc1nc(CN2CCN(C(=O)Cc3ccccc3)CC2)cs1)c1ccccc1 [THPI-244],lowest concentration with significant cytotoxicity,[1],50 µM
same,increase of TrkA in brain,TrkA,78%
